# According to US20240032541A1, “HERBICIDAL COMPOUNDS” (SYNGENTA CROP PROTECTION AG, priority 2020, published 2024):
# Columns and labels:
# Type in all cases: in vivo
# Setaria faberi (SETFA) [1] = test: Pre-emergence herbicide glasshouse test; settings: pre-emergence (sprayed after one day cultivation), 250 g/ha, evaluated after 13 days
# Procedure: (§1) Seeds of a variety of test species are sown in standard soil in pots Amaranthus retoflexus (AMARE), Echinochloa crus-galli (ECHCG), Setaria faberi (SETFA)). After cultivation for one day (pre-emergence) or after 8 days cultivation (post-emergence) under controlled conditions in a glasshouse (at 24/16° C., day/night; 14 hours light; 65% humidity), the plants are sprayed with an aqueous spray solution derived from the formulation of the technical active ingredient in acetone/water (50:50) solution containing 0.5% Tween 20 (polyoxyethelyene sorbitan monolaurate, CAS RN 9005-64-5). Compounds are applied at 250 g/ha unless otherwise stated. The test plants are then grown in a glasshouse under controlled conditions in a glasshouse (at 24/16° C., day/night; 14 hours light; 65% humidity) and watered twice daily. After 13 days for pre and post-emergence, the test is evaluated for the percentage damage caused to the plant. The biological activities are shown in the following table on a five-point scale (5=81-100%; 4=61-80%; 3=41-60%; 2=21-40%; 1=0-20%).
# [2] = tested on: Echinochloa crus-galli (ECHCG); test: Pre-emergence herbicide glasshouse test; settings: pre-emergence (sprayed after one day cultivation), 250 g/ha, evaluated after 13 days
# Procedure: as §1
# [3] = tested on: Amaranthus retoflexus (AMARE); test: Pre-emergence herbicide glasshouse test; settings: pre-emergence (sprayed after one day cultivation), 250 g/ha, evaluated after 13 days
# Procedure: as §1
# Setaria faberi (SETFA) [4] = test: Post-emergence herbicide glasshouse test; settings: post-emergence (sprayed after 8 days cultivation), 250 g/ha, evaluated after 13 days
# Procedure: as §1
# [5] = tested on: Echinochloa crus-galli (ECHCG); test: Post-emergence herbicide glasshouse test; settings: post-emergence (sprayed after 8 days cultivation), 250 g/ha, evaluated after 13 days
# Procedure: as §1
# [6] = tested on: Amaranthus retoflexus (AMARE); test: Post-emergence herbicide glasshouse test; settings: post-emergence (sprayed after 8 days cultivation), 250 g/ha, evaluated after 13 days
# Procedure: as §1
SMILES,"percentage damage caused to the plant, five-point scale, SETFA (Setaria faberi (SETFA) [1])","percentage damage caused to the plant, five-point scale, ECHCG [2]","percentage damage caused to the plant, five-point scale, AMARE [3]","percentage damage caused to the plant, five-point scale, SETFA (Setaria faberi (SETFA) [4])","percentage damage caused to the plant, five-point scale, ECHCG [5]","percentage damage caused to the plant, five-point scale, AMARE [6]"
CCCCc1nc(C(F)(F)F)nc2cccc(Oc3ncc(Cl)cn3)c12 [Compound 1.005],5 (5=81-100%),5 (5=81-100%),5 (5=81-100%),5 (5=81-100%),5 (5=81-100%),5 (5=81-100%)
FC(F)(F)CCOc1ncnc2cccc(Oc3ncc(Cl)cn3)c12 [Compound 1.008],5 (5=81-100%),1 (1=0-20%),5 (5=81-100%),1 (1=0-20%),1 (1=0-20%),3 (3=41-60%)
FC(F)Oc1cnc(Oc2cccc3nc(C(F)(F)F)nc(CCCC(F)(F)F)c23)nc1 [Compound 1.027],0,2 (2=21-40%),3 (3=41-60%),1 (1=0-20%),1 (1=0-20%),4 (4=61-80%)
"CC(C)c1nc(CCCC(F)(F)F)c2c(Oc3ncc(Cl)cn3)cccc2n1 [Compound 1.050, 5-(5-chloropyrimidin-2-yl)oxy-2-isopropyl-4-(4,4,4-trifluorobutyl)quinazoline]",5 (5=81-100%),5 (5=81-100%),5 (5=81-100%),3 (3=41-60%),2 (2=21-40%),5 (5=81-100%)
FC(F)(F)CCOc1nccc2cccc(Oc3ncc(Cl)cn3)c12 [Compound 1.009],1 (1=0-20%),1 (1=0-20%),1 (1=0-20%),1 (1=0-20%),1 (1=0-20%),1 (1=0-20%)
"C=CCCc1nc(C(F)(F)F)nc2cccc(Oc3ncc(Cl)cn3)c12 [Compound 1.028, 4-but-3-enyl-5-(5-chloropyrimidin-2-yl) oxy-2 (trifluoromethyl)quinazoline]",5 (5=81-100%),5 (5=81-100%),4 (4=61-80%),4 (4=61-80%),4 (4=61-80%),5 (5=81-100%)
Cc1cnc(Oc2cccc3nc(C(F)(F)F)nc(CCCC(F)(F)F)c23)nc1 [Compound 1.020],5 (5=81-100%),5 (5=81-100%),5 (5=81-100%),5 (5=81-100%),5 (5=81-100%),4 (4=61-80%)
"FC(F)(F)CCCc1cccc2cccc(Oc3ncc(Cl)cn3)c12 [Compound 1.002, 5-chloro-2-[[8-(4,4,4-trifluorobutyl)-1-naphthyl]oxy]pyrimidine]",1 (1=0-20%),1 (1=0-20%),1 (1=0-20%),3 (3=41-60%),2 (2=21-40%),3 (3=41-60%)
"FC(F)(F)CCCc1cc(C(F)(F)F)nc2cccc(Oc3ncc(Cl)cn3)c12 [Compound 1.015, 5-(5-chloropyrimidin-2-yl)oxy-4-(4,4,4-trifluorobutyl)-2-(trifluoromethyl)quinoline]",5 (5=81-100%),5 (5=81-100%),5 (5=81-100%),4 (4=61-80%),4 (4=61-80%),5 (5=81-100%)
CCCc1nc(CCCC(F)(F)F)c2c(Oc3ncc(Cl)cn3)cccc2n1 [Compound 1.033],5 (5=81-100%),5 (5=81-100%),2 (2=21-40%),3 (3=41-60%),3 (3=41-60%),4 (4=61-80%)
FC(F)(F)CCCc1nc(C2CCCC2)nc2cccc(Oc3ncc(Cl)cn3)c12 [Compound 1.031],5 (5=81-100%),5 (5=81-100%),1 (1=0-20%),3 (3=41-60%),3 (3=41-60%),4 (4=61-80%)
"FC(F)(F)CCCc1ncnc2cccc(Oc3ncc(Cl)cn3)c12 [Compound 1.003, 5-(5-chloropyrimidin-2-yl)oxy-4-(4,4,4-trifluorobutyl)quinazoline]",5 (5=81-100%),5 (5=81-100%),5 (5=81-100%),3 (3=41-60%),3 (3=41-60%),5 (5=81-100%)
FC(F)(F)CCCc1nc(C(F)(F)F)nc2cccc(Oc3ncc(Br)cn3)c12 [Compound 1.025],5 (5=81-100%),5 (5=81-100%),4 (4=61-80%),4 (4=61-80%),5 (5=81-100%),4 (4=61-80%)
FC(F)(F)CCCCc1nc(C(F)(F)F)nc2cccc(Oc3ncc(Cl)cn3)c12 [Compound 1.021],5 (5=81-100%),5 (5=81-100%),5 (5=81-100%),4 (4=61-80%),4 (4=61-80%),5 (5=81-100%)
